Among the data in paper PMC4306938, “Araguspongine C Induces Autophagic Death in Breast Cancer Cells through Suppression of c-Met and HER2 Receptor Tyrosine Kinase Signaling” (Marine Drugs, 2015) are IC50 values, retold here.

In test [1] the target is T1, c-Met (Homo sapiens, UniProt P08581). Briefly: cell-free Z-LYTE Tyr6 peptide kinase assay, positive control measured by the authors. The format is biochemical.
The target in test [2] is T1, c-Met. Description: cell-free Z-LYTE Tyr6 peptide kinase assay, dose-response. The format is biochemical.

T1 sequence (P08581 25-307): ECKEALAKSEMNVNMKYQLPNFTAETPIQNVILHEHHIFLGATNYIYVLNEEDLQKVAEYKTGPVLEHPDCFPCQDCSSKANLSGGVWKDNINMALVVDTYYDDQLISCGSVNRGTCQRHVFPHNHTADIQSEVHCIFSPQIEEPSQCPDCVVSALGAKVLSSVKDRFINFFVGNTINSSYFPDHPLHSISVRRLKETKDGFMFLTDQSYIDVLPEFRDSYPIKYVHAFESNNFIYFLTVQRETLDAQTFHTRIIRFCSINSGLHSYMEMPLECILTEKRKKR
T1 sequence (P08581 308-1390): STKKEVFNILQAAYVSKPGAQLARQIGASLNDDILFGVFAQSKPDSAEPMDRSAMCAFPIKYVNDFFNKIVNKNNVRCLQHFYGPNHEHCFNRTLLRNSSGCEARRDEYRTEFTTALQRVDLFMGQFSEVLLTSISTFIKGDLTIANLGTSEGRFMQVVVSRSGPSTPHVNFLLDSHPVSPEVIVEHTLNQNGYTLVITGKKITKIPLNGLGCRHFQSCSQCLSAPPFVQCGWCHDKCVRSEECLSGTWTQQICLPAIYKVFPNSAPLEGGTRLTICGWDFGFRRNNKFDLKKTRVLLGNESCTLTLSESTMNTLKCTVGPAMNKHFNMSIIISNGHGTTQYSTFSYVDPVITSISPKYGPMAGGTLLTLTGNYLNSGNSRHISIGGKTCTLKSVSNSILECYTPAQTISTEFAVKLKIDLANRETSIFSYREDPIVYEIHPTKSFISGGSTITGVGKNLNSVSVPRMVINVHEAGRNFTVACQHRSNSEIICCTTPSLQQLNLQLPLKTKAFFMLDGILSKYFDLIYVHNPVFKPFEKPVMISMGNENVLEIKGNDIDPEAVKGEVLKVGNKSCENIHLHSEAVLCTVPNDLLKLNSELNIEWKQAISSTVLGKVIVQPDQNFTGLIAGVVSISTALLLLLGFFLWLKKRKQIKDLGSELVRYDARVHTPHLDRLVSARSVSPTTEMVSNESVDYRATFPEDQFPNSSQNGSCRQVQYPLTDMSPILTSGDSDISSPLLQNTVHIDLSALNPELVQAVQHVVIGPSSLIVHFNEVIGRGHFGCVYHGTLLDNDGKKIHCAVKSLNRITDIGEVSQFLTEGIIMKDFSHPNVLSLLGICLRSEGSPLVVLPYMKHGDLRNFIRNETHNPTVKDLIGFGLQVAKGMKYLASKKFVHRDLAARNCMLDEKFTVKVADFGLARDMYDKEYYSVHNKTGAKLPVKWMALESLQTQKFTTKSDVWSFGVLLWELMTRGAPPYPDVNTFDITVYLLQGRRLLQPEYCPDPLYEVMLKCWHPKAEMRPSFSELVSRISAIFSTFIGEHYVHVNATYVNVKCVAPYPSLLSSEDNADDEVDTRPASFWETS

The IC50 is the midpoint of a concentration-inhibition curve. As for `C/C=C(/C=O)[C@@H](CC=O)CC(=O)OCCc1ccc(O)cc1` [OC, (−)-Oleocanthal], the IC50 against c-Met [1] stood at 5 µM.
On to `O[C@]12CCCCCC[C@@H]3CCN4CCC[C@](O)(CCCCCC[C@@H]5CCN(CCC1)[C@H]2O5)[C@@H]4O3` [ARG C, Araguspongine C], for which, on c-Met [2], half-maximal inhibition (IC50) required 19.9 µM.
